Reference: ChEMBL document CHEMBL4673357, “Antimicrobial Furancarboxylic Acids from a Penicillium sp” (2020)

What was measured:
Type in all cases: functional
[1] = test system: Staphylococcus aureus; experiment: Antibacterial activity against Staphylococcus aureus ATCC 25923 assessed as reduction in microbial growth after 18 hrs by microbroth dilution method
[2] = test system: Candida albicans; experiment: Antifungal activity against Candida albicans ATCC 10231 assessed as reduction in microbial growth after 18 hrs by microbroth dilution method
[3] = test system: Escherichia coli; experiment: Antibacterial activity against Escherichia coli ATCC 35218 assessed as reduction in microbial growth after 18 hrs by microbroth dilution method

| Structure (SMILES) | MIC [1] [µg/mL] | MIC [2] [µg/mL] | MIC [3] [µg/mL] |
| --- | --- | --- | --- |
| CCCC1=C(C(=O)OC)C(=O)[C@@](C)(/C=C/C=C/[C@H](C)O)O1 | 2.9 | 4.4 | 2.9 |
| COC(=O)C1=C(C)O[C@](C)(/C=C/CC[C@@H](C)O)C1=O | 2.7 | 5.4 | 5.4 |
| CCCC1=C(C(=O)OC)C(=O)[C@@](C)(/C=C/CC[C@@H](C)O)O1 | 3 | 5.9 | 3 |
| COC(=O)C1=C(C)O[C@](C)(/C=C/CC[C@H](C)O)C1=O | 2.7 | 5.4 | 5.4 |
| CCCC1=C(C(=O)OC)C(=O)[C@@](C)(/C=C/CC[C@H](C)O)O1 | 3 | 5.9 | 3 |
| C[C@@H]1[C@H](O)[C@@H](C)/C=C/C=C/C=C/C=C/C=C/C=C/C=C/[C@H](O[C@@H]2O[C@H](C)[C@@H](O)[C@H](N)[C@@H]2O)C[C@@H]2O[C@](O)(C[C@@H](O)C[C@@H](O)[C@H](O)CC[C@@H](O)C[C@@H](O)CC(=O)O[C@H]1C)C[C@H](O)[C@H]2C(=O)O [AMPHOTERICIN B] |  | 0.1 |  |
| CN[C@@H]1[C@H](O[C@H]2[C@H](O[C@H]3[C@H](O)[C@@H](O)[C@H](N=C(N)N)[C@@H](O)[C@@H]3N=C(N)N)O[C@@H](C)[C@]2(O)C=O)O[C@@H](CO)[C@H](O)[C@H]1O [STREPTOMYCIN] | 0.1 |  | 2.3 |

The remaining lines, values ahead:

| MIC [1] [µg/mL] | MIC [2] [µg/mL] | MIC [3] [µg/mL] | Structure (SMILES) |
| --- | --- | --- | --- |
| 3.5 | 7 | 3.5 | COC(=O)C1=C(c2ccsc2C)O[C@](C)(/C=C/CC[C@@H](C)O)C1=O |
| 1.9 | 3.8 | 0.9 | CC/C=C/C=C/[C@@]1(C)OC(c2cc(C(=O)O)sc2C)=C(C(=O)OC)C1=O |
| 3.5 | 7 | 7 | COC(=O)C1=C(c2ccsc2C)O[C@](C)(/C=C/C=C/[C@H](C)O)C1=O |
| 1.7 | 3.3 | 1.7 | CC/C=C/C=C/[C@@]1(C)OC(c2ccsc2C)=C(C(=O)OC)C1=O |
| 2.9 | 4.4 | 2.9 | CCCC1=C(C(=O)OC)C(=O)[C@@](C)(/C=C/C=C/[C@@H](C)O)O1 |
| 3.5 | 7 | 7 | COC(=O)C1=C(c2ccsc2C)O[C@](C)(/C=C/C=C/[C@@H](C)O)C1=O |
| 3.5 | 7 | 3.5 | COC(=O)C1=C(c2ccsc2C)O[C@](C)(/C=C/CC[C@H](C)O)C1=O |
